Laboratory results from PubChem BioAssay AID330 (DTP/NCI, 2004).
“And” between values parts separate entries of the source, which are not always exact repeats. Equal values may be shown once. Inconclusive results and toxic doses are left out.

Tested on: P388 leukemia ip, CD2F1 mice, survival T/C
Experiment: NCI In Vivo Anticancer Drug Screen. Data for tumor model P388 Leukemia (intraperitoneal) in CD2F1 (CDF1) mice
Details: endpoint: median survival time, higher = longer survival
In short: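 Mice carrying the transplanted tumor received test compound or vehicle. Survival was recorded in each group, and the value is the treated-group measurement divided by that of the vehicle-treated control group.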

Which results are given for `COc1cc2cc(c1Cl)N(C)C(=O)C[C@H](OC(=O)[C@H](C)N(C)C(C)=O)[C@]1(C)O[C@H]1[C@H](C)[C@@H]1C[C@@](O)(NC(=O)O1)[C@H](OC)C=C/C=C(\C)C2`?
T/C (dose: 0.01 mg/kg/injection, schedule: Q01DX005 (iv), vehicle: saline): 117 % of control; T/C (dose: 0.03 mg/kg/injection, schedule: Q01DX005 (iv), vehicle: saline): 107 % of control; T/C (dose: 0.05 mg/kg/injection, schedule: Q01DX005 (ip), vehicle: saline): 158 % of control; T/C (dose: 0.05 mg/kg/injection, schedule: Q01DX005 (iv), vehicle: saline): 104 % of control; T/C (dose: 0.05 mg/kg/injection, schedule: Q04DX002 (ip), vehicle: saline + alcohol): 169 % of control; T/C (dose: 0.08 mg/kg/injection, schedule: Q04DX002 (ip), vehicle: saline + alcohol): 171 % of control; T/C (dose: 0.1 mg/kg/injection, schedule: Q01DX005 (ip), vehicle: saline): 172 % of control; T/C (dose: 0.1 mg/kg/injection, schedule: Q01DX005 (iv), vehicle: saline): 107 % of control; T/C (dose: 0.16 mg/kg/injection, schedule: Q04DX003 (ip), vehicle: saline): 123 % of control; T/C (dose: 0.1 micrograms/kg/injection, schedule: Q01DX009 (ip), vehicle: saline): 100 % of control; T/C (dose: 0.3 micrograms/kg/injection, schedule: Q03HX016 (ip), vehicle: other): 122 % of control; T/C (dose: 0.4 micrograms/kg/injection, schedule: Q01DX009 (ip), vehicle: saline): 112 % of control; T/C (dose: 0.5 micrograms/kg/injection, schedule: Q01DX009 (oral), vehicle: other): 100 % of control; T/C (dose: 0.5 micrograms/kg/injection, schedule: Q01DX009 (sc), vehicle: other): 100 % of control; T/C (dose: 0.5 micrograms/kg/injection, schedule: Q03HX008 (ip), vehicle: other): 122 % of control; T/C (dose: 0.8 micrograms/kg/injection, schedule: Q01DX009 (ip), vehicle: saline): 120 % of control; T/C (dose: 1.0 micrograms/kg/injection, schedule: Q01DX001 (ip), vehicle: other): 109 % of control; T/C (dose: 1.0 micrograms/kg/injection, schedule: Q01DX009 (ip), vehicle: saline + alcohol): 111 % of control; T/C (dose: 1.0 micrograms/kg/injection, schedule: Q01DX009 (oral), vehicle: other): 100 % of control; T/C (dose: 1.0 micrograms/kg/injection, schedule: Q01DX009 (sc), vehicle: other): 100 % of control; T/C (dose: 1.0 micrograms/kg/injection, schedule: Q08DX002 (ip), vehicle: other): 109 % of control; T/C (dose: 2.0 micrograms/kg/injection, schedule: Q01DX001 (oral), vehicle: other): 100 % of control; T/C (dose: 2.0 micrograms/kg/injection, schedule: Q01DX001 (sc), vehicle: other): 100 % of control; T/C (dose: 2.0 micrograms/kg/injection, schedule: Q01DX009 (ip), vehicle: water): 117 % of control; T/C (dose: 2.0 micrograms/kg/injection, schedule: Q01DX009 (sc), vehicle: other): 100 % of control; T/C (dose: 3.1 micrograms/kg/injection, schedule: Q01DX009 (ip), vehicle: saline + alcohol): 158 % of control; T/C (dose: 4.0 micrograms/kg/injection, schedule: Q01DX001 (oral), vehicle: other): 100 % of control; T/C (dose: 4.0 micrograms/kg/injection, schedule: Q01DX009 (ip), vehicle: other): 154 % of control; T/C (dose: 4.0 micrograms/kg/injection, schedule: Q01DX009 (ip), vehicle: water): 157 % of control; T/C (dose: 4.0 micrograms/kg/injection, schedule: Q01DX009 (oral), vehicle: other): 104 % of control; T/C (dose: 4.0 micrograms/kg/injection, schedule: Q01DX009 (sc), vehicle: other): 100 % of control; T/C (dose: 4.0 micrograms/kg/injection, schedule: Q03HX016 (ip), vehicle: other): 159 % of control; T/C (dose: 6.3 micrograms/kg/injection, schedule: Q01DX009 (ip), vehicle: saline + alcohol): 160 % of control; T/C (dose: 6.3 micrograms/kg/injection, schedule: Q01DX009 (ip), vehicle: saline): 159 % of control; T/C (dose: 8.0 micrograms/kg/injection, schedule: Q01DX001 (oral), vehicle: other): 104 % of control; T/C (dose: 8.0 micrograms/kg/injection, schedule: Q01DX001 (sc), vehicle: other): 100 % of control; T/C (dose: 8.0 micrograms/kg/injection, schedule: Q01DX005 (ip), vehicle: saline + alcohol): 157 % of control; T/C (dose: 8.0 micrograms/kg/injection, schedule: Q01DX009 (ip), vehicle: other): 154 % of control; T/C (dose: 8.0 micrograms/kg/injection, schedule: Q01DX009 (ip), vehicle: water): 150 % of control; T/C (dose: 8.0 micrograms/kg/injection, schedule: Q01DX009 (oral), vehicle: other): 100 % of control; T/C (dose: 8.0 micrograms/kg/injection, schedule: Q01DX009 (sc), vehicle: other): 100 % of control; T/C (dose: 8.0 micrograms/kg/injection, schedule: Q03HX008 (ip), vehicle: other): 163 % of control; T/C (dose: 8.0 micrograms/kg/injection, schedule: Q03HX016 (ip), vehicle: other): 163 % of control; T/C (dose: 8.0 micrograms/kg/injection, schedule: Q03HX016 (ip), vehicle: saline + alcohol): 163 % of control; T/C (dose: 8.0 micrograms/kg/injection, schedule: Q04DX003 (ip), vehicle: other): 150 % of control; T/C (dose: 12.5 micrograms/kg/injection, schedule: Q01DX009 (ip), vehicle: saline + alcohol): 159 % of control and 172 % of control; T/C (dose: 16.0 micrograms/kg/injection, schedule: Q01DX001 (oral), vehicle: other): 100 % of control; T/C (dose: 16.0 micrograms/kg/injection, schedule: Q01DX001 (sc), vehicle: other): 100 % of control; T/C (dose: 16.0 micrograms/kg/injection, schedule: Q01DX005 (ip), vehicle: saline + alcohol): 155 % of control and 157 % of control and 160 % of control; T/C (dose: 16.0 micrograms/kg/injection, schedule: Q01DX009 (ip), vehicle: water): 159 % of control; T/C (dose: 16.0 micrograms/kg/injection, schedule: Q01DX009 (oral), vehicle: other): 100 % of control; T/C (dose: 16.0 micrograms/kg/injection, schedule: Q01DX009 (sc), vehicle: other): 100 % of control; T/C (dose: 16.0 micrograms/kg/injection, schedule: Q03HX008 (ip), vehicle: saline + alcohol): 163 % of control; T/C (dose: 16.0 micrograms/kg/injection, schedule: Q04DX003 (ip), vehicle: other): 154 % of control; T/C (dose: 16.0 micrograms/kg/injection, schedule: Q04DX003 (ip), vehicle: water): 151 % of control; T/C (dose: 25.0 micrograms/kg/injection, schedule: Q01DX009 (ip), vehicle: saline + alcohol): 163 % of control; T/C (dose: 32.0 micrograms/kg/injection, schedule: Q01DX001 (oral), vehicle: other): 100 % of control; T/C (dose: 32.0 micrograms/kg/injection, schedule: Q01DX001 (sc), vehicle: other): 100 % of control; T/C (dose: 32.0 micrograms/kg/injection, schedule: Q01DX005 (ip), vehicle: saline + alcohol): 163 % of control and 172 % of control; T/C (dose: 32.0 micrograms/kg/injection, schedule: Q01DX009 (oral), vehicle: other): 109 % of control; T/C (dose: 32.0 micrograms/kg/injection, schedule: Q01DX009 (sc), vehicle: other): 104 % of control; T/C (dose: 32.0 micrograms/kg/injection, schedule: Q03HX016 (ip), vehicle: saline + alcohol): 163 % of control; T/C (dose: 32.0 micrograms/kg/injection, schedule: Q03HX024 (ip), vehicle: saline + alcohol): 122 % of control; T/C (dose: 32.0 micrograms/kg/injection, schedule: Q04DX003 (ip), vehicle: other): 172 % of control; T/C (dose: 50.0 micrograms/kg/injection, schedule: Q01DX005 (ip), vehicle: saline): 173 % of control; T/C (dose: 50.0 micrograms/kg/injection, schedule: Q01DX009 (ip), vehicle: saline + alcohol): 159 % of control; T/C (dose: 64.0 micrograms/kg/injection, schedule: Q01DX001 (oral), vehicle: other): 100 % of control; T/C (dose: 64.0 micrograms/kg/injection, schedule: Q01DX001 (sc), vehicle: other): 100 % of control; T/C (dose: 64.0 micrograms/kg/injection, schedule: Q01DX005 (ip), vehicle: saline + alcohol): 173 % of control and 175 % of control; T/C (dose: 64.0 micrograms/kg/injection, schedule: Q01DX009 (oral), vehicle: other): 104 % of control; T/C (dose: 64.0 micrograms/kg/injection, schedule: Q01DX009 (sc), vehicle: other): 109 % of control; T/C (dose: 64.0 micrograms/kg/injection, schedule: Q03HX008 (ip), vehicle: saline + alcohol): 159 % of control; T/C (dose: 64.0 micrograms/kg/injection, schedule: Q04DX003 (ip), vehicle: water): 161 % of control; T/C (dose: 64.0 micrograms/kg/injection, schedule: Q08DX002 (ip), vehicle: other): 150 % of control; T/C (dose: 86.4 micrograms/kg/injection, schedule: Q04DX002 (ip), vehicle: saline + alcohol): 160 % of control; T/C (dose: 128.0 micrograms/kg/injection, schedule: Q01DX001 (ip), vehicle: other): 154 % of control; T/C (dose: 128.0 micrograms/kg/injection, schedule: Q01DX001 (oral), vehicle: other): 104 % of control; T/C (dose: 128.0 micrograms/kg/injection, schedule: Q01DX001 (sc), vehicle: other): 109 % of control; T/C (dose: 128.0 micrograms/kg/injection, schedule: Q01DX009 (oral), vehicle: other): 100 % of control; T/C (dose: 128.0 micrograms/kg/injection, schedule: Q01DX009 (sc), vehicle: saline + alcohol): 154 % of control; T/C (dose: 128.0 micrograms/kg/injection, schedule: Q04DX003 (ip), vehicle: saline + alcohol): 163 % of control; T/C (dose: 128.0 micrograms/kg/injection, schedule: Q04DX003 (ip), vehicle: water): 150 % of control; T/C (dose: 128.0 micrograms/kg/injection, schedule: Q08DX002 (ip), vehicle: other): 163 % of control; T/C (dose: 128.0 micrograms/kg/injection, schedule: Q08DX002 (ip), vehicle: saline + alcohol): 163 % of control; T/C (dose: 128.0 micrograms/kg/injection, schedule: Q08DX002 (ip), vehicle: saline): 154 % of control; T/C (dose: 144.0 micrograms/kg/injection, schedule: Q04DX002 (ip), vehicle: saline + alcohol): 169 % of control; T/C (dose: 256.0 micrograms/kg/injection, schedule: Q01DX001 (ip), vehicle: other): 150 % of control; T/C (dose: 256.0 micrograms/kg/injection, schedule: Q01DX001 (ip), vehicle: saline + alcohol): 150 % of control; T/C (dose: 256.0 micrograms/kg/injection, schedule: Q01DX001 (oral), vehicle: other): 104 % of control; T/C (dose: 256.0 micrograms/kg/injection, schedule: Q01DX009 (sc), vehicle: saline + alcohol): 172 % of control; T/C (dose: 256.0 micrograms/kg/injection, schedule: Q08DX002 (ip), vehicle: saline): 172 % of control; T/C (dose: 512.0 micrograms/kg/injection, schedule: Q01DX001 (ip), vehicle: saline + alcohol): 154 % of control; T/C (dose: 512.0 micrograms/kg/injection, schedule: Q01DX001 (oral), vehicle: other): 100 % of control; T/C (dose: 1024.0 micrograms/kg/injection, schedule: Q08DX002 (ip), vehicle: saline): 109 % of control
